Test results published in patent US12257237B2 (priority 2017, dated 2025).
Where “and” joins values, the source holds several entries; their conditions need not be identical. Identical values can stand only once.

Test: Drug tolerability (body weight) in DD013 dedifferentiated liposarcoma xenograft model
Assay type: in vivo, Athymic nude mice
Parameters: key to Animal status: †: sacrificed moribund
Conditions: for Mouse body weight: individual mice
Protocol: Experiments were performed with female Athymic nude mice, 9-10 weeks old obtained from Harlan Laboratories (Udine, Italy). They were maintained under Specific Pathogen Free conditions with constant temperature and humidity, according to the institutional guidelines.
Tumour growth mice was monitored two/three times a week (depending on tumour growth rate, to avoid unnecessary stress to the animals) by Vernier caliper. Mice were sacrificed when tumour reached a mean weight of 2±0.5 gr. The antitumour activity will be expressed as T/C %, where T and C were the mean tumour weight of treated and control groups, respectively. Mice were monitored daily and weighted at least two times a week. Tolerability was evaluated on the basis of body weight loss (BWL) and clinical observation.

[1] = EDO40 (40 mg/kg), day 23 from inoculum
[2] = EDO40 (40 mg/kg), day 26 from inoculum
[3] = EDO40 (40 mg/kg), day 33 from inoculum
[4] = EDO40 (40 mg/kg), day 36 from inoculum
[5] = EDO40 (40 mg/kg), day 40 from inoculum
[6] = EDO40 (40 mg/kg), day 43 from inoculum
[7] = EDO40 (40 mg/kg), day 50 from inoculum
[8] = EDO40 (40 mg/kg), day 54 from inoculum
[9] = EDO40 (40 mg/kg), day 58 from inoculum
[10] = EDO40 (40 mg/kg), day 62 from inoculum
[11] = EDO40 (40 mg/kg), day 65 from inoculum
[12] = EDO40 (40 mg/kg), day 69 from inoculum
[13] = EDO40 (40 mg/kg), day 72 from inoculum
[14] = EDO40 (40 mg/kg), day 75 from inoculum
[15] = EDO40 (40 mg/kg), day 79 from inoculum
[16] = EDO40 (40 mg/kg), day 83 from inoculum
[17] = EDO40 (40 mg/kg), day 87 from inoculum
[18] = EDO40 (40 mg/kg), day 90 from inoculum
[19] = EDO40 (40 mg/kg), day 94 from inoculum
[20] = EDO40 (40 mg/kg), day 98 from inoculum
[21] = EDO40 (40 mg/kg), day 100 from inoculum
[22] = EDO60 (60 mg/kg), day 23 from inoculum
[23] = EDO60 (60 mg/kg), day 26 from inoculum
[24] = EDO60 (60 mg/kg), day 29 from inoculum
[25] = EDO60 (60 mg/kg), day 33 from inoculum
[26] = EDO60 (60 mg/kg), day 36 from inoculum
[27] = EDO60 (60 mg/kg), day 40 from inoculum
[28] = EDO80 (80 mg/kg), day 23 from inoculum
[29] = EDO80 (80 mg/kg), day 26 from inoculum
[30] = EDO80 (80 mg/kg), day 29 from inoculum
[31] = EDO80 (80 mg/kg), day 33 from inoculum
[32] = EDO80 (80 mg/kg), day 36 from inoculum
[33] = EDO80 (80 mg/kg), day 40 from inoculum
[34] = EDO80 (80 mg/kg), day 43 from inoculum
[35] = EDO80 (80 mg/kg), day 47 from inoculum
[36] = EDO80 (80 mg/kg), day 50 from inoculum
[37] = EDO80 (80 mg/kg), day 54 from inoculum
[38] = EDO80 (80 mg/kg), day 58 from inoculum
[39] = EDO80 (80 mg/kg), day 62 from inoculum
[40] = EDO80 (80 mg/kg), day 65 from inoculum
[41] = EDO80 (80 mg/kg), day 69 from inoculum
[42] = EDO80 (80 mg/kg), day 72 from inoculum
[43] = EDO80 (80 mg/kg), day 75 from inoculum
[44] = EDO80 (80 mg/kg), day 79 from inoculum
[45] = EDO80 (80 mg/kg), day 83 from inoculum
[46] = EDO80 (80 mg/kg), day 87 from inoculum
[47] = EDO80 (80 mg/kg), day 90 from inoculum
[48] = EDO80 (80 mg/kg), day 94 from inoculum
[49] = EDO80 (80 mg/kg), day 98 from inoculum
[50] = EDO80 (80 mg/kg), day 100 from inoculum
[51] = EDO80 (80 mg/kg), day 103 from inoculum

With `Cn1c(CCCCCCC(=O)NO)nc2cc(N(CCCl)CCCl)ccc21` [EDO-S101, 7-(5-(bis(2-chloroethyl)amino)-1-methyl-1H-benzo[d]imidazol-2-yl)-N-hydroxyheptanamide] the “rapid BWL of one mouse (sacrificed)” value (80 mg/kg group, between day 75 and 79 from inoculum) was over 30%, the BWL % [1] was 0.0% and the “Mouse body weight, Mean” value [1] was 23.6 g. The BWL % [2] was −1.7%, the “Mouse body weight, Mean” value [2] was 23.2 g and the “Mouse body weight, Mean” value (EDO40 (40 mg/kg), day 29 from inoculum) was 24.7 g. For the same compound, the BWL % [3] was 2.4%, the “Mouse body weight, Mean” value [3] was 24.2 g and the BWL % [4] was 4.1%. For the same compound, the “Mouse body weight, Mean” value [4] was 24.6 g, the BWL % [5] was 6.1% and the “Mouse body weight, Mean” value [5] was 25.0 g. For the same compound, the BWL % [6] was 6.2%, the “Mouse body weight, Mean” value [6] was 25.1 g and the “Mouse body weight, Mean” value (EDO40 (40 mg/kg), day 47 from inoculum) was 26.0 g. For the same compound, the BWL % [7] was 11.7%, the “Mouse body weight, Mean” value [7] was 26.4 g and the BWL % [8] was 10.1%. The “Mouse body weight, Mean” value [8] was 26.0 g, the BWL % [9] was 8.3% and the “Mouse body weight, Mean” value [9] was 25.6 g. For the same compound, the BWL % [10] was 11.0%, the “Mouse body weight, Mean” value [10] was 26.2 g and the BWL % [11] was 9.1%. For the same compound, the “Mouse body weight, Mean” value [11] was 25.8 g, the BWL % [12] was 13.3% and the “Mouse body weight, Mean” value [12] was 26.8 g. For the same compound, the BWL % [13] was 13.3%, the “Mouse body weight, Mean” value [13] was 26.8 g and the BWL % [14] was 15.6%. The “Mouse body weight, Mean” value [14] was 27.3 g, the BWL % [15] was 13.8% and the “Mouse body weight, Mean” value [15] was 26.9 g. For the same compound, the BWL % [16] was 14.3%, the “Mouse body weight, Mean” value [16] was 27.0 g and the BWL % [17] was 14.4%. The “Mouse body weight, Mean” value [17] was 27.0 g, the BWL % [18] was 17.9% and the “Mouse body weight, Mean” value [18] was 27.8 g. For the same compound, the BWL % [19] was 16.0%, the “Mouse body weight, Mean” value [19] was 27.4 g and the BWL % [20] was 18.3%. For the same compound, the “Mouse body weight, Mean” value [20] was 27.9 g, the BWL % [21] was 15.7% and the “Mouse body weight, Mean” value [21] was 27.3 g. The BWL % [22] was 0.0%, the “Mouse body weight, Mean” value [22] was 23.3 g and the BWL % [23] was −4.5%. The “Mouse body weight, Mean” value [23] was 22.3 g, the BWL % [24] was 1.7% and the “Mouse body weight, Mean” value [24] was 23.7 g. For the same compound, the BWL % [25] was −0.8%, the “Mouse body weight, Mean” value [25] was 23.1 g and the BWL % [26] was 2.5%. For the same compound, the “Mouse body weight, Mean” value [26] was 23.9 g, the BWL % [27] was −0.6% and the “Mouse body weight, Mean” value [27] was 23.2 g. For the same compound, the “Mouse body weight, Mean” value (EDO60 (60 mg/kg), day 43 from inoculum) was 24.1 g, the “Mouse body weight, Mean” value (EDO60 (60 mg/kg), day 47 from inoculum) was 25.2 g and the “Mouse body weight, Mean” value (EDO60 (60 mg/kg), day 50 from inoculum) was 25.3 g. For the same compound, the “Mouse body weight, Mean” value (EDO60 (60 mg/kg), day 54 from inoculum) was 25.6 g, the “Mouse body weight, Mean” value (EDO60 (60 mg/kg), day 58 from inoculum) was 25.5 g and the “Mouse body weight, Mean” value (EDO60 (60 mg/kg), day 62 from inoculum) was 25.5 g. For the same compound, the “Mouse body weight, Mean” value (EDO60 (60 mg/kg), day 69 from inoculum) was 25.9 g, the “Mouse body weight, Mean” value (EDO60 (60 mg/kg), day 72 from inoculum) was 26.3 g and the “Mouse body weight, Mean” value (EDO60 (60 mg/kg), day 75 from inoculum) was 26.0 g. The “Mouse body weight, Mean” value (EDO60 (60 mg/kg), day 79 from inoculum) was 24.8 g, the “Mouse body weight, Mean” value (EDO60 (60 mg/kg), day 83 from inoculum) was 24.5 g and the “Mouse body weight, Mean” value (EDO60 (60 mg/kg), day 87 from inoculum) was 24.6 g. For the same compound, the “Mouse body weight, Mean” value (EDO60 (60 mg/kg), day 90 from inoculum) was 24.8 g, the “Mouse body weight, Mean” value (EDO60 (60 mg/kg), day 94 from inoculum) was 25.3 g and the “Mouse body weight, Mean” value (EDO60 (60 mg/kg), day 98 from inoculum) was 26.2 g. The “Mouse body weight, Mean” value (EDO60 (60 mg/kg), day 111 from inoculum) was 25.6 g, the “Mouse body weight, Mean” value (EDO60 (60 mg/kg), day 114 from inoculum) was 25.3 g and the “Mouse body weight, Mean” value (EDO60 (60 mg/kg), day 118 from inoculum) was 25.5 g. For the same compound, the BWL % [28] was 0.0%, the “Mouse body weight, Mean” value [28] was 24.2 g and the Mouse body weight [28] was 26.1 g and 25.7 g and 25 g and 23.1 g and 24 g and 26.2 g and 22.4 g and 22.3 g. The BWL % [29] was −3.4%, the “Mouse body weight, Mean” value [29] was 21.9 g and the Mouse body weight [29] was 23.4 g and 23.6 g and 22 g and 21.3 g and 20.9 g and 20.1 g and 22.4 g and 21.6 g and 21.9 g. For the same compound, the BWL % [30] was 4.2%, the “Mouse body weight, Mean” value [30] was 21.7 g and the Mouse body weight [30] was 22.7 g and 22.6 g and 21.5 g and 22.2 g and 21 g (3×) and 21.6 g (2×). For the same compound, the BWL % [31] was 1.3%, the “Mouse body weight, Mean” value [31] was 23.7 g and the Mouse body weight [31] was 25.1 g (2×) and 24 g and 23.1 g and 21.9 g and 22.5 g. The BWL % [32] was 5.9%, the “Mouse body weight, Mean” value [32] was 25.5 g and the Mouse body weight [32] was 27 g and 25.3 g and 24.7 g and 23.8 g and 26.3 g and 24.2 g and 24.6 g. The BWL % [33] was 2.5%, the Mouse body weight [33] was 28.6 g and 27 g and 25.7 g and 24.4 g (2×) and 27.9 g and 24 g and the BWL % [34] was 8.0%. The “Mouse body weight, Mean” value [34] was 25.8 g, the Mouse body weight [34] was 28.5 g and 26.5 g and 25 g (2×) and 26.9 g and 24.2 g and 24.4 g and the BWL % [35] was 5.9%. For the same compound, the “Mouse body weight, Mean” value [35] was 25.9 g, the Mouse body weight [35] was 27.9 g and 26.1 g and 24.6 g (2×) and 24.2 g and 27.4 g and 24.4 g and the BWL % [36] was 7.6%. The “Mouse body weight, Mean” value [36] was 25.8 g, the Mouse body weight [36] was 27.9 g and 26.8 g and 24.6 g and 24.4 g and 26.3 g and 23.2 g and 25.3 g and the BWL % [37] was 8.0%. For the same compound, the “Mouse body weight, Mean” value [37] was 26.2 g, the Mouse body weight [37] was 27.7 g and 26.7 g and 25.8 g and 25 g (2×) and 28 g and 24.8 g and the BWL % [38] was 12.2%. The “Mouse body weight, Mean” value [38] was 27.0 g, the Mouse body weight [38] was 28.7 g and 29.8 g and 28 g and 27.4 g and 26.9 g and 25 g (2×) and the BWL % [39] was 8.4%. The “Mouse body weight, Mean” value [39] was 23.5 g, the Mouse body weight [39] was 25.7 g and 24.4 g and 23.9 g and 24 g and 22.7 g and 21.9 g and 23.7 g and 23.8 g and 21.4 g and the BWL % [40] was 8.0%. For the same compound, the “Mouse body weight, Mean” value [40] was 23.9 g, the BWL % [41] was 6.3% and the “Mouse body weight, Mean” value [41] was 25.2 g. For the same compound, the Mouse body weight [41] was 28.7 g, the BWL % [42] was 9.7% and the “Mouse body weight, Mean” value [42] was 25.9 g. For the same compound, the Mouse body weight [42] was 30.7 g, the BWL % [43] was 13.9% and the “Mouse body weight, Mean” value [43] was 26.4 g. For the same compound, the Mouse body weight [43] was 30.6 g, the BWL % [44] was 8.8% and the “Mouse body weight, Mean” value [44] was 24.6 g. For the same compound, the Mouse body weight [44] was 28.7 g, the BWL % [45] was 7.6% and the “Mouse body weight, Mean” value [45] was 24.1 g. The Mouse body weight [45] was 24.1 g, the Animal status (EDO80 (80 mg/kg), day 83 from inoculum, mouse # 56) was “†” and the BWL % [46] was 5.0%. The “Mouse body weight, Mean” value [46] was 23.8 g, the Mouse body weight [46] was 25.3 g and the BWL % [47] was 2.9%. For the same compound, the “Mouse body weight, Mean” value [47] was 25.4 g, the Mouse body weight [47] was 29.2 g and the BWL % [48] was 0.0%. For the same compound, the “Mouse body weight, Mean” value [48] was 27.4 g, the BWL % [49] was 2.9% and the “Mouse body weight, Mean” value [49] was 28.0 g. For the same compound, the Mouse body weight [49] was 31.1 g, the BWL % [50] was 0.4% and the “Mouse body weight, Mean” value [50] was 27.5 g. For the same compound, the Mouse body weight [50] was 29.7 g, the BWL % [51] was −0.8% and the “Mouse body weight, Mean” value [51] was 27.3 g. It also gave a Mouse body weight [51] of 25.9 g and a BWL (all doses and schedules) of under 5%.
